Values after ≈ are worked out from the molar mass of the structure shown. Where two headings read alike, the source gives them in different places. Blank lines part the entries; values can stand above or below the compound they belong to.
How the values were obtained:
[1] = Water solubility of PBICs; assay type: physicochemical; conditions: for solubility: water; for Water solubility, TPMP Conjugate: TPMP conjugate of the drug
Protocol: (§1) The water solubilties and partition coefficients of the PBICs were measured and compared to the values of the therapeutic agent by itself. To determine the partition coefficient Log D7.4 data provided in Table 2, a solution of the compound or conjugate was prepared in aqueous phosphate buffered saline (PBS) at a concentration of 100 micromolar (μM). The PBS solution was shaken with octanol. Thus, in Table 2, Log D7.4=Log (concentration in octanol/concentration in aqueous phosphate buffered saline (PBS))=Log[(initial concentration in PBS−final concentration in PBS)/final concentration in PBS], as the concentration in octanol is derived from the loss of compound from the aqueous PBS layer.

Caco-2 cell permeability = conditions: human, Caco-2
Caco-2 = Caco-2 cell permeability; conditions: No Inhibitor
[2] = Partition coefficient octanol/PBS (LogD7.4); assay type: physicochemical; conditions: 100 μM in PBS shaken with octanol
Protocol: as §1

[3] = parent drug; cited from earlier work

Compound: CC(O)CC(=O)O (racemic) [3-hydroxybutyric acid]
solubility ([1]; parent drug by itself): 444000 µg/mL (≈ 4260 mM)

Compound: NCC(CC(=O)O)c1ccc(Cl)cc1 (centres unmarked) [Baclofen]
solubility ([1]; parent drug by itself): 700 µg/mL (≈ 3.28 mM)

Compound: C[C@H](CS)C(=O)N1CCC[C@H]1C(=O)O [Captopril]
solubility ([1]; parent drug by itself): 160000 µg/mL (≈ 736 mM)

Compound: CC(C)Cc1ccc(C(C)C(=O)O)cc1 (centres unmarked) [Ibuprofen, reference compound]
Papp A→B (Caco-2 cell permeability): 40.5 ×10⁻⁶ cm/s
Papp B→A (Caco-2 cell permeability): 19 ×10⁻⁶ cm/s
Water solubility, Drug [1]: 21.0 mg/L

Compound: CC(C)Cc1ccc(C(C)C(=O)[O-])cc1.COC1=C(OC)C(=O)C(CCCCCCCCCC[P+](c2ccccc2)(c2ccccc2)c2ccccc2)=C(C)C1=O [Ibuprofen-MitoQ, Ibuprofen MitoQ conjugate]
Mean (B-A/A-B) Efflux Ratio (Caco-2): 0.467
Mean Papp A-B (Caco-2): 52.1 10^−6 cm/s
Mean Papp B-A (Caco-2): 24.3 10^−6 cm/s
Water solubility, MitoQ Conjugate ([1]; MitoQ conjugate of the drug): Insoluble
(Conc. in octanol)/(Conc. in PBS) [2]: 9.94
LogD7.4 [2]: 1.00

Compound: CCC1C(O)C2C3CCC(C(C)CCC(=O)[O-])C3(C)CCC2C2(C)CCC(O)CC12.COC1=C(OC)C(=O)C(CCCCCCCCCC[P+](c2ccccc2)(c2ccccc2)c2ccccc2)=C(C)C1=O [Obeticholic acid-MitoQ]
Mean (B-A/A-B) Efflux Ratio (Caco-2): 0.0872
Mean Papp A-B (Caco-2): 18.9 10^−6 cm/s
Mean Papp B-A (Caco-2): 1.65 10^−6 cm/s
(Conc. in octanol)/(Conc. in PBS) [2]: 624.00
LogD7.4 [2]: 2.80

Compound: (R)-3-Hydroxybutyric Acid-TPMP conjugate [R-3-Hydroxybutyric acid TPMP Conjugate]
Water solubility, TPMP Conjugate [1]: 2,867,500.0 mg/L

Compound: Baclofen-TPMP conjugate [Baclofen TPMP Conjugate]
Water solubility, TPMP Conjugate [1]: 13,500.0 mg/L

Compound: Captopril TPMP conjugate
Water solubility, TPMP Conjugate [1]: 3,036,666.7 mg/L

Compound: Deoxycholic acid TPMP conjugate
Water solubility, TPMP Conjugate [1]: 2,518,000.0 mg/L

Compound: Diflunisal-TPMP conjugate [Diflunisal TPMP Conjugate]
Water solubility, TPMP Conjugate [1]: 1,518,333.3 mg/L

Compound: Indomethacin-TPMP conjugate [Indomethacin TPMP Conjugate]
Water solubility, TPMP Conjugate [1]: 1,700,000.0 mg/L

Compound: L-Thyroxine TPMP conjugate [Levothyroxine TPMP Conjugate]
Water solubility, TPMP Conjugate [1]: <400 mg/L

Compound: Latanoprost Acid-TPMP conjugate [Latanoprost TPMP Conjugate]
Water solubility, TPMP Conjugate [1]: 2,187,777.8 mg/L

Compound: Retinoic Acid-TPMP conjugate [Retinoic acid TPMP Conjugate]
Water solubility, TPMP Conjugate [1]: 2,624,000.0 mg/L

Compound: Travoprost Acid-TPMP conjugate [Travoprost TPMP Conjugate]
Water solubility, TPMP Conjugate [1]: 1,921,666.7 mg/L

Compound: Treprostinil TPMP conjugate
Water solubility, TPMP Conjugate [1]: 2,558,000.0 mg/L

Compound: racemic 3-Hydroxybutyric Acid-TPMP conjugate [3-hydroxybutyric acid TPMP Conjugate]
Water solubility, TPMP Conjugate [1]: 4,332,500.0 mg/L

Further lines, with some results ahead:

Water solubility, Drug ([1]; parent drug by itself): 43.6 mg/L
Compound: C[C@H](CCC(=O)O)[C@H]1CC[C@H]2[C@@H]3CC[C@@H]4C[C@H](O)CC[C@]4(C)[C@H]3C[C@H](O)[C@]12C [Deoxycholic acid]

Papp A→B (Caco-2 cell permeability): 34.5 ×10⁻⁶ cm/s
Papp B→A (Caco-2 cell permeability): 13.5 ×10⁻⁶ cm/s
Compound: O=C(O)Cc1ccccc1Nc1c(Cl)cccc1Cl [Diclofenac, reference compound]

solubility ([1]; parent drug by itself): 14.5 µg/mL (≈ 0.058 mM)
Compound: O=C(O)c1cc(-c2ccc(F)cc2F)ccc1O [Diflunisal]

solubility ([1]; parent drug by itself): 0.9 µg/mL (≈ 0.00252 mM)
Compound: COc1ccc2c(c1)c(CC(=O)O)c(C)n2C(=O)c1ccc(Cl)cc1 [Indomethacin]

solubility ([1]; parent drug by itself): 8 µg/mL (≈ 0.0185 mM)
Compound: CC(C)OC(=O)CCC/C=C\C[C@@H]1[C@@H](CC[C@@H](O)CCc2ccccc2)[C@H](O)C[C@@H]1O [Latanoprost]

solubility ([1]; parent drug by itself): 0.2 µg/mL (≈ 0.000257 mM)
Compound: N[C@@H](Cc1cc(I)c(Oc2cc(I)c(O)c(I)c2)c(I)c1)C(=O)O [Levothyroxine]

Papp A→B (Caco-2 cell permeability): 32.6 ×10⁻⁶ cm/s
Papp B→A (Caco-2 cell permeability): 3.23 ×10⁻⁶ cm/s
efflux ratio (Caco-2 cell permeability): 0.0989
Compound: CC[C@H]1[C@@H](O)[C@@H]2[C@H](CC[C@]3(C)[C@@H]([C@H](C)CCC(=O)O)CC[C@@H]23)[C@@]2(C)CC[C@@H](O)C[C@@H]12 [Obeticholic acid, reference compound]
LogP (Reported) [3]: 3.5

solubility ([1]; parent drug by itself): 444000 µg/mL (≈ 4260 mM)
Compound: C[C@@H](O)CC(=O)O [R-3-Hydroxybutyric acid, (R)-3-hydroxybutyric acid]

Water solubility, Drug ([1]; parent drug by itself): 1,000.0 mg/L
Compound: CC1=C(/C=C/C(C)=C/C=C/C(C)=C/C(=O)O)C(C)(C)CCC1 [Retinoic acid]

solubility ([1]; parent drug by itself): 1 µg/mL (≈ 0.00251 mM)
Compound: O=C(O)c1cc(/N=N/c2ccc(S(=O)(=O)Nc3ccccn3)cc2)ccc1O [Sulfasalazine]

solubility ([1]; parent drug by itself): 7 µg/mL (≈ 0.014 mM)
Compound: CC(C)OC(=O)CCC/C=C\C[C@@H]1[C@@H](/C=C/[C@@H](O)COc2cccc(C(F)(F)F)c2)[C@H](O)C[C@@H]1O [Travoprost]

solubility ([1]; parent drug by itself): 7 µg/mL (≈ 0.0179 mM)
Compound: CCCCC[C@H](O)CC[C@@H]1[C@H]2Cc3cccc(OCC(=O)O)c3C[C@H]2C[C@H]1O [Treprostinil]

Mean (B-A/A-B) Efflux Ratio (Caco-2): 0.103
Mean Papp A-B (Caco-2): 20.5 10^−6 cm/s
Mean Papp B-A (Caco-2): 2.11 10^−6 cm/s
(Conc. in octanol)/(Conc. in PBS) [2]: 1,182.39
LogD7.4 [2]: 3.07
Compound: Obeticholic acid-TPMP

Source: US11541120B2, “Phosphonium-based ionic drug conjugates” (Anthos Partners, LP, priority 2017, dated 2023)
